Reference: ChEMBL document CHEMBL1130260, “A strategy for the incorporation of water molecules present in a ligand binding site into a three-dimensional quantitative structure--activity relationship analysis” (J Med Chem, 1997)

What follows are compounds tested against Glycogen phosphorylase, muscle form (Oryctolagus cuniculus) (UniProt P00489). Settings: Muscle tissue.
Sequence of Glycogen phosphorylase, muscle form (Oryctolagus cuniculus) (P00489 whole entry, looked up): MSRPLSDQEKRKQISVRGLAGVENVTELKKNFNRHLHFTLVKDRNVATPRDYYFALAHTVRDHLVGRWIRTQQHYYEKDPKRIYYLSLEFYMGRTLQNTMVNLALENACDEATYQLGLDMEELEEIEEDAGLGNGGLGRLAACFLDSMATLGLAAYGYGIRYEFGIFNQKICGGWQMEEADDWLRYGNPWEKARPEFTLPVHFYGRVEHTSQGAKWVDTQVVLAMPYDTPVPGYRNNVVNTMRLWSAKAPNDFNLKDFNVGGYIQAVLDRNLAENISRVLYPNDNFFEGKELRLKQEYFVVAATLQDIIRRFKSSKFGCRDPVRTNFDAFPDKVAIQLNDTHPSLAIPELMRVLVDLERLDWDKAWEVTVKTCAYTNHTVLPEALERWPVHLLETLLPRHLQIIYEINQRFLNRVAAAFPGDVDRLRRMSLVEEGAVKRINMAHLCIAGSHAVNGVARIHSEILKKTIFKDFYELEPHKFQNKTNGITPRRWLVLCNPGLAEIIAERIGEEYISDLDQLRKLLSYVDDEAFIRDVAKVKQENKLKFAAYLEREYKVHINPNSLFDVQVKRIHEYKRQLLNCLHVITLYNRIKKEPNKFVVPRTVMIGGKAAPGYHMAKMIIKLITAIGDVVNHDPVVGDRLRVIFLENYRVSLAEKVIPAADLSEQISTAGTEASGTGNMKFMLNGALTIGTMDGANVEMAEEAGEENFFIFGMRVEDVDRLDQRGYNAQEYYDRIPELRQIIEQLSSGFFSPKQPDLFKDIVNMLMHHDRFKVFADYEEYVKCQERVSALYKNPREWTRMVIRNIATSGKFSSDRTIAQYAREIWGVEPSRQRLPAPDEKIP
`NC(=O)C1OC(CO)C(O)C(O)C1O` (stereo in doubt; 2) showed a pKi of 3.43.
Compound `OCC1OC(S)C(O)C(O)C1O` (stereo not drawn) has a pKi of 3.
`NCCC1OC(CO)C(O)C(O)C1O` (stereo not drawn) showed a pKi of 2.35.
With `O=C(NCCO)[C@H]1O[C@@H](CO)[C@@H](O)[C@H](O)[C@@H]1O` the pKi was 2.59.
For `NNC(=O)[C@@H]1O[C@H](CO)[C@@H](O)[C@H](O)[C@H]1O` (stereo in doubt; 3), the pKi was 2.52.
In the case of `NCC1OC(CO)C(O)C(O)C1O` (stereo in doubt; 19), the pKi is reported as 1.78.
Compound `[N-]=[N+]=NC[C@@]1(O)O[C@@H](CO)[C@@H](O)[C@H](O)[C@@H]1O` has a pKi of 2.13.
In the case of `OC[C@@H]1O[C@H](OC[C@H]2S[C@H](O)[C@H](O)[C@@H](O)[C@@H]2O)[C@@H](O)[C@@H](O)[C@@H]1O`, the pKi is reported as 2.7.
For `OC[C@@H]1O[C@H](n2cc(O[C@@H]3O[C@H](CO)[C@@H](O)[C@H](O)[C@H]3O)c3ccccc32)[C@@H](O)[C@@H](O)[C@@H]1O`, the pKi was 2.59.
In the case of `O=C(NCC(F)(F)F)[C@H]1O[C@@H](CO)[C@@H](O)[C@H](O)[C@@H]1O`, the pKi is reported as 2.09.
`[N-]=[N+]=NC[C@H]1O[C@H](CO)[C@@H](O)[C@H](O)[C@H]1O` was tested, and the pKi was 1.65.
In the case of `NC(=O)C1OC(CO)C(O)C(O)C1O` (stereo in doubt; 9), the pKi is reported as 3.36.
For `NC(=O)N[C@H]1O[C@H](CO)[C@@H](O)[C@H](O)[C@H]1O`, the pKi was 3.85.
For `NC(=O)CS[C@H]1O[C@H](CO)[C@@H](O)[C@H](O)[C@H]1O`, the pKi was 1.68.
`NN1C(=O)N[C@@]2(O[C@@H](CO)[C@@H](O)[C@H](O)[C@@H]2O)C1=O` was tested, and the pKi was 3.84.
With `O=C1N[C@@]2(O[C@@H](CO)[C@@H](O)[C@H](O)[C@@H]2O)C(=O)N1O` the pKi was 4.41.
`CNNC(=O)[C@H]1O[C@H](CO)[C@@H](O)[C@H](O)[C@H]1O` was tested, and the pKi was 2.75.
`CC(=O)N[C@H]1O[C@H](CO)[C@@H](O)[C@H](O)[C@H]1O` showed a pKi of 4.5.
`CCC(=O)N[C@H]1O[C@H](CO)[C@@H](O)[C@H](O)[C@H]1O` was tested, and the pKi was 4.41.
`O=C(CS[C@H]1O[C@H](CO)[C@@H](O)[C@H](O)[C@H]1O)Nc1ccc(F)cc1F` showed a pKi of 1.72.
For `CCCC(=O)N[C@H]1O[C@H](CO)[C@@H](O)[C@H](O)[C@H]1O`, the pKi was 4.03.
`CNC(=O)C1OC(CO)C(O)C(O)C1O` (stereo not drawn) gave a pKi of 3.8.
With `O=C(NC1CC1)[C@H]1O[C@@H](CO)[C@@H](O)[C@H](O)[C@@H]1O` the pKi was 2.89.
Compound `O=C(N[C@H]1O[C@H](CO)[C@@H](O)[C@H](O)[C@H]1O)c1ccccc1` has a pKi of 4.09.
Work on `N#CC[C@]1(O)O[C@H](CO)[C@@H](O)[C@H](O)[C@H]1O` yielded a pKi of 2.12.
`[N-]=[N+]=NC[C@@H]1O[C@H](CO)[C@@H](O)[C@H](O)[C@H]1O` gave a pKi of 1.82.
`CS(=O)(=O)OC[C@]1(O)O[C@@H](CO)[C@@H](O)[C@H](O)[C@@H]1O` gave a pKi of 2.43.
`CC(=O)NCC(=O)N[C@H]1O[C@H](CO)[C@@H](O)[C@H](O)[C@H]1O` gave a pKi of 3.
`COC(=O)N[C@]1(C(N)=O)O[C@H](CO)[C@@H](O)[C@H](O)[C@H]1O` (stereo in doubt; 35) gave a pKi of 4.8.
`O=C(CS[C@H]1O[C@H](CO)[C@@H](O)[C@H](O)[C@H]1O)Nc1ccccc1` gave a pKi of 2.44.
`NCC(=O)N[C@H]1O[C@@H](CO)[C@@H](O)[C@H](O)[C@@H]1O` showed a pKi of 3.43.
`O=C1CNC(=O)[C@@]2(N1)O[C@@H](CO)[C@@H](O)[C@H](O)[C@@H]2O` was tested, and the pKi was 4.22.
With `COC(=O)N[C@]1(C(N)=O)O[C@H](CO)[C@@H](O)[C@H](O)[C@H]1O` (stereo in doubt; 49) the pKi was 3.5.
`O=C(Nc1ccc(O)cc1)[C@H]1O[C@@H](O)[C@@H](O)[C@H](O)[C@@H]1O` showed a pKi of 2.36.
`NNC(=O)[C@@H]1O[C@H](CO)[C@@H](O)[C@H](O)[C@H]1O` (stereo in doubt; 14) showed a pKi of 3.4.
`O=C(CCl)N[C@H]1O[C@H](CO)[C@@H](O)[C@H](O)[C@H]1O` was tested, and the pKi was 4.35.
Compound `OC[C@H]1O[C@H](OCC2O[C@@H](O)[C@H](O)[C@@H](O)[C@@H]2O)[C@H](O)[C@@H](O)[C@H]1O` (stereo partly drawn) has a pKi of 1.79.
Compound `COC(=O)N[C@@H]1O[C@H](CO)[C@@H](O)[C@H](O)[C@H]1O` has a pKi of 4.07.
Compound `COC(=O)C1OC(CO)C(O)C(O)C1O` (stereo in doubt; 4) has a pKi of 1.62.
For `OCC1OC(CO)C(O)C(O)C1O` (stereo not drawn), the pKi was 2.82.
Compound `N#CC[C@@H]1O[C@H](CO)[C@@H](O)[C@H](O)[C@H]1O` has a pKi of 2.05.
`NCC1OC(CO)C(O)C(O)C1O` (stereo in doubt; 5) gave a pKi of 1.46.
`O=C(Nc1ccccc1)C1OC(CO)C(O)C(O)C1O` (stereo not drawn) was tested, and the pKi was 2.27.
`CC(=O)NN1C(=O)N[C@@]2(O[C@@H](CO)[C@@H](O)[C@H](O)[C@@H]2O)C1=O` was tested, and the pKi was 3.26.
Compound `OC[C@@H]1O[C@@](O)(CO)[C@@H](O)[C@@H](O)[C@@H]1O` has a pKi of 1.8.
`CS(=O)(=O)OCC1OC(CO)C(O)C(O)C1O` (stereo not drawn) was tested, and the pKi was 2.32.
With `O=C(CBr)N[C@H]1O[C@@H](CO)[C@@H](O)[C@H](O)[C@@H]1O` the pKi was 4.36.
`COC(=O)C1OC(CO)C(O)C(O)C1O` (stereo in doubt; 18) gave a pKi of 2.55.
